Assay results taken from ChEMBL document CHEMBL5724806, “Unraveling interindividual differences and functional consequences of gut microbial metabolism of immunosuppressants” (2024).

Columns and labels:
Assay type in all cases: ADME
[1] = (§1) The drug is tested on Alloscardovia omnicolens strain: DSM21503 for biotransformation under anaerobic condition. The drug concentrations were measured over 6 timepoints collected between 0 and 12 hours of incubation by liquid-chromatography-coupled mass spectrometry (LC–MS); set-up: dose 5 uM, timepoint 0, 1.5, 3, 6, 9, 12 hours; conditions: 5 µM
[2] = The drug is tested on Bacteroides ovatus strain: ATCC 8483 for biotransformation under anaerobic condition. The drug concentrations were measured over 6 timepoints collected between 0 and 12 hours of incubation by liquid-chromatography-coupled mass spectrometry (LC–MS); set-up: dose 5 uM, timepoint 0, 1.5, 3, 6, 9, 12 hours; conditions: 5 µM
[3] = The drug is tested on Bacteroides xylanisolvens strain: HM 722 for biotransformation under anaerobic condition. The drug concentrations were measured over 6 timepoints collected between 0 and 12 hours of incubation by liquid-chromatography-coupled mass spectrometry (LC–MS); set-up: dose 5 uM, timepoint 0, 1.5, 3, 6, 9, 12 hours; conditions: 5 µM
[4] = The drug is tested on Odoribacter splanchnicus strain: DSM20712 for biotransformation under anaerobic condition. The drug concentrations were measured over 6 timepoints collected between 0 and 12 hours of incubation by liquid-chromatography-coupled mass spectrometry (LC–MS); set-up: dose 5 uM, timepoint 0, 1.5, 3, 6, 9, 12 hours; conditions: 5 µM
[5] = The drug is tested on Clostridium ramosum strain: DSM1402 for biotransformation under anaerobic condition. The drug concentrations were measured over 6 timepoints collected between 0 and 12 hours of incubation by liquid-chromatography-coupled mass spectrometry (LC–MS); set-up: dose 5 uM, timepoint 0, 1.5, 3, 6, 9, 12 hours; conditions: thomasclavelia ramosa, 5 µM
[6] = The drug is tested on Coprococcus comes strain: ATCC27758 for biotransformation under anaerobic condition. The drug concentrations were measured over 6 timepoints collected between 0 and 12 hours of incubation by liquid-chromatography-coupled mass spectrometry (LC–MS); set-up: dose 5 uM, timepoint 0, 1.5, 3, 6, 9, 12 hours; conditions: 5 µM
[7] = The drug is tested on Eubacterium eligens strain: DSM3376 for biotransformation under anaerobic condition. The drug concentrations were measured over 6 timepoints collected between 0 and 12 hours of incubation by liquid-chromatography-coupled mass spectrometry (LC–MS); set-up: dose 5 uM, timepoint 0, 1.5, 3, 6, 9, 12 hours; conditions: lachnospira eligens, 5 µM
[8] = The drug is tested on Eubacterium hallii strain: DSM3353 for biotransformation under anaerobic condition. The drug concentrations were measured over 6 timepoints collected between 0 and 12 hours of incubation by liquid-chromatography-coupled mass spectrometry (LC–MS); set-up: dose 5 uM, timepoint 0, 1.5, 3, 6, 9, 12 hours; conditions: anaerobutyricum hallii, 5 µM
[9] = The drug is tested on Gemella haemolysans strain: DSM107751 for biotransformation under anaerobic condition. The drug concentrations were measured over 6 timepoints collected between 0 and 12 hours of incubation by liquid-chromatography-coupled mass spectrometry (LC–MS); set-up: dose 5 uM, timepoint 0, 1.5, 3, 6, 9, 12 hours; conditions: 5 µM
[10] = The drug is tested on Gemella morbillorum strain: DSM20572 for biotransformation under anaerobic condition. The drug concentrations were measured over 6 timepoints collected between 0 and 12 hours of incubation by liquid-chromatography-coupled mass spectrometry (LC–MS); set-up: dose 5 uM, timepoint 0, 1.5, 3, 6, 9, 12 hours; conditions: 5 µM
[11] = The drug is tested on Lactobacillus reuteri strain: DSM20016 for biotransformation under anaerobic condition. The drug concentrations were measured over 6 timepoints collected between 0 and 12 hours of incubation by liquid-chromatography-coupled mass spectrometry (LC–MS); set-up: dose 5 uM, timepoint 0, 1.5, 3, 6, 9, 12 hours; conditions: limosilactobacillus reuteri, 5 µM
[12] = The drug is tested on Ruminococcus gnavus strain: ATCC29149 for biotransformation under anaerobic condition. The drug concentrations were measured over 6 timepoints collected between 0 and 12 hours of incubation by liquid-chromatography-coupled mass spectrometry (LC–MS); set-up: dose 5 uM, timepoint 0, 1.5, 3, 6, 9, 12 hours; conditions: mediterraneibacter gnavus, 5 µM
[13] = The drug is tested on Streptococcus salivarius strain: DSM20560 for biotransformation under anaerobic condition. The drug concentrations were measured over 6 timepoints collected between 0 and 12 hours of incubation by liquid-chromatography-coupled mass spectrometry (LC–MS); set-up: dose 5 uM, timepoint 0, 1.5, 3, 6, 9, 12 hours; conditions: 5 µM
[14] = The drug is tested on Escherichia coli strain: DSM27469 for biotransformation under anaerobic condition. The drug concentrations were measured over 6 timepoints collected between 0 and 12 hours of incubation by liquid-chromatography-coupled mass spectrometry (LC–MS); set-up: dose 5 uM, timepoint 0, 1.5, 3, 6, 9, 12 hours; conditions: 5 µM
[15] = The drug is tested on Akkermansia muciniphila strain: DSM22959 for biotransformation under anaerobic condition. The drug concentrations were measured over 6 timepoints collected between 0 and 12 hours of incubation by liquid-chromatography-coupled mass spectrometry (LC–MS); set-up: dose 5 uM, timepoint 0, 1.5, 3, 6, 9, 12 hours; conditions: 5 µM
[16] = (§2) The drug is tested on Alloscardovia omnicolens strain: DSM21503 for biotransformation under microaerobic condition. The drug concentrations were measured over 6 timepoints collected between 0 and 12 hours of incubation by liquid-chromatography-coupled mass spectrometry (LC–MS); set-up: dose 5 uM, timepoint 0, 1.5, 3, 6, 9, 12 hours; conditions: 5 µM
[17] = The drug is tested on Lactobacillus fermentum strain: DSM20052 for biotransformation under microaerobic condition. The drug concentrations were measured over 6 timepoints collected between 0 and 12 hours of incubation by liquid-chromatography-coupled mass spectrometry (LC–MS); set-up: dose 5 uM, timepoint 0, 1.5, 3, 6, 9, 12 hours; conditions: limosilactobacillus fermentum, 5 µM
[18] = The drug is tested on Streptococcus mitis strain: DSM12643 for biotransformation under microaerobic condition. The drug concentrations were measured over 6 timepoints collected between 0 and 12 hours of incubation by liquid-chromatography-coupled mass spectrometry (LC–MS); set-up: dose 5 uM, timepoint 0, 1.5, 3, 6, 9, 12 hours; conditions: 5 µM
[19] = The drug is tested on Streptococcus salivarius strain: DSM20560 for biotransformation under microaerobic condition. The drug concentrations were measured over 6 timepoints collected between 0 and 12 hours of incubation by liquid-chromatography-coupled mass spectrometry (LC–MS); set-up: dose 5 uM, timepoint 0, 1.5, 3, 6, 9, 12 hours; conditions: 5 µM
[20] = as §1, with “the gut metagenome community of A-04 with ENA study accession number: PRJEB31790” for “Alloscardovia omnicolens strain: DSM21503”, “7” for “6”; set-up: dose 5 uM, timepoint 0, 0.75, 1.5, 3, 6, 9, 12 hours; conditions: 5 µM
[21] = as §1, with “the gut metagenome community of A-07 with ENA study accession number: PRJEB31790” for “Alloscardovia omnicolens strain: DSM21503”, “7” for “6”; set-up: dose 5 uM, timepoint 0, 0.75, 1.5, 3, 6, 9, 12 hours; conditions: 5 µM
[22] = as §1, with “the gut metagenome community of T-01 with ENA study accession number: PRJEB31790” for “Alloscardovia omnicolens strain: DSM21503”, “7” for “6”; set-up: dose 5 uM, timepoint 0, 0.75, 1.5, 3, 6, 9, 12 hours; conditions: 5 µM
[23] = as §2, with “the gut metagenome community of A-01 with ENA study accession number: PRJEB31790” for “Alloscardovia omnicolens strain: DSM21503”, “7” for “6”; set-up: dose 5 uM, timepoint 0, 0.75, 1.5, 3, 6, 9, 12 hours; conditions: 5 µM
[24] = as §2, with “the gut metagenome community of A-05 with ENA study accession number: PRJEB31790” for “Alloscardovia omnicolens strain: DSM21503”, “7” for “6”; set-up: dose 5 uM, timepoint 0, 0.75, 1.5, 3, 6, 9, 12 hours; conditions: 5 µM
[25] = as §2, with “the gut metagenome community of A-06 with ENA study accession number: PRJEB31790” for “Alloscardovia omnicolens strain: DSM21503”, “7” for “6”; set-up: dose 5 uM, timepoint 0, 0.75, 1.5, 3, 6, 9, 12 hours; conditions: 5 µM
[26] = as §2, with “the gut metagenome community of A-07 with ENA study accession number: PRJEB31790” for “Alloscardovia omnicolens strain: DSM21503”, “7” for “6”; set-up: dose 5 uM, timepoint 0, 0.75, 1.5, 3, 6, 9, 12 hours; conditions: 5 µM
[27] = as §2, with “the gut metagenome community of P-01 with ENA study accession number: PRJEB31790” for “Alloscardovia omnicolens strain: DSM21503”, “7” for “6”; set-up: dose 5 uM, timepoint 0, 0.75, 1.5, 3, 6, 9, 12 hours; conditions: 5 µM
[28] = as §2, with “the gut metagenome community of P-03 with ENA study accession number: PRJEB31790” for “Alloscardovia omnicolens strain: DSM21503”, “7” for “6”; set-up: dose 5 uM, timepoint 0, 0.75, 1.5, 3, 6, 9, 12 hours; conditions: 5 µM
[29] = as §2, with “the gut metagenome community of P-04 with ENA study accession number: PRJEB31790” for “Alloscardovia omnicolens strain: DSM21503”, “7” for “6”; set-up: dose 5 uM, timepoint 0, 0.75, 1.5, 3, 6, 9, 12 hours; conditions: 5 µM

| Bacterial Biotransformation [1] | Bacterial Biotransformation [2] | Bacterial Biotransformation [3] | Bacterial Biotransformation [4] | Bacterial Biotransformation [5] | Bacterial Biotransformation [6] | Bacterial Biotransformation [7] | Bacterial Biotransformation [8] | Bacterial Biotransformation [10] | Bacterial Biotransformation [11] | Bacterial Biotransformation [12] | Bacterial Biotransformation [13] | Bacterial Biotransformation [14] | Bacterial Biotransformation [15] | Bacterial Biotransformation [16] | Bacterial Biotransformation [17] | Bacterial Biotransformation [18] | Bacterial Biotransformation [19] | Bacterial Biotransformation [20] | Structure (SMILES) | Bacterial Biotransformation [9] | further results |
| --- | --- | --- | --- | --- | --- | --- | --- | --- | --- | --- | --- | --- | --- | --- | --- | --- | --- | --- | --- | --- | --- |
| Compound NOT metabolized | Compound NOT metabolized | Compound NOT metabolized | Compound NOT metabolized | Compound NOT metabolized | Compound NOT metabolized | Compound NOT metabolized | Compound NOT metabolized | Compound NOT metabolized | Compound NOT metabolized | Compound metabolized | Compound NOT metabolized | Compound NOT metabolized | Compound metabolized | Compound NOT metabolized | Compound NOT metabolized | Compound NOT metabolized | Compound NOT metabolized | Compound metabolized | C[C@]12C=CC(=O)C=C1CC[C@@H]1[C@@H]2C(=O)C[C@@]2(C)[C@H]1CC[C@]2(O)C(=O)CO [PREDNISONE] | Compound NOT metabolized | Bacterial Biotransformation [21]: Compound metabolized; Bacterial Biotransformation [22]: Compound metabolized; Bacterial Biotransformation [23]: Compound metabolized; Bacterial Biotransformation [24]: Compound metabolized; Bacterial Biotransformation [25]: Compound metabolized; Bacterial Biotransformation [26]: Compound metabolized; Bacterial Biotransformation [27]: Compound metabolized; Bacterial Biotransformation [28]: Compound metabolized; Bacterial Biotransformation [29]: Compound metabolized |
| Compound NOT metabolized | Compound NOT metabolized | Compound NOT metabolized | Compound NOT metabolized | Compound NOT metabolized | Compound metabolized | Compound NOT metabolized | Compound metabolized | Compound NOT metabolized | Compound NOT metabolized | Compound NOT metabolized | Compound NOT metabolized | Compound NOT metabolized | Compound NOT metabolized | Compound NOT metabolized | Compound NOT metabolized | Compound NOT metabolized | Compound NOT metabolized | Compound metabolized | CO[C@H]1C[C@@H]2CC[C@@H](C)[C@@](O)(O2)C(=O)C(=O)N2CCCC[C@H]2C(=O)O[C@H]([C@H](C)C[C@@H]2CC[C@@H](OCCO)[C@H](OC)C2)CC(=O)[C@H](C)/C=C(\C)[C@@H](O)[C@@H](OC)C(=O)[C@H](C)C[C@H](C)/C=C/C=C/C=C/1C [EVEROLIMUS] | Compound NOT metabolized | Bacterial Biotransformation [21]: Compound metabolized; Bacterial Biotransformation [22]: Compound NOT metabolized; Bacterial Biotransformation [23]: Compound metabolized; Bacterial Biotransformation [24]: Compound metabolized; Bacterial Biotransformation [25]: Compound metabolized; Bacterial Biotransformation [26]: Compound metabolized; Bacterial Biotransformation [27]: Compound NOT metabolized; Bacterial Biotransformation [28]: Compound NOT metabolized; Bacterial Biotransformation [29]: Compound NOT metabolized |
| Compound NOT metabolized | Compound NOT metabolized | Compound NOT metabolized | Compound NOT metabolized | Compound metabolized | Compound metabolized | Compound NOT metabolized | Compound metabolized | Compound NOT metabolized | Compound NOT metabolized | Compound NOT metabolized | Compound NOT metabolized | Compound NOT metabolized | Compound NOT metabolized | Compound NOT metabolized | Compound NOT metabolized | Compound NOT metabolized | Compound NOT metabolized | Compound metabolized | CN(Cc1cnc2nc(N)nc(N)c2n1)c1ccc(C(=O)N[C@@H](CCC(=O)O)C(=O)O)cc1 [METHOTREXATE] | Compound NOT metabolized | Bacterial Biotransformation [21]: Compound metabolized; Bacterial Biotransformation [22]: Compound NOT metabolized; Bacterial Biotransformation [23]: Compound NOT metabolized; Bacterial Biotransformation [24]: Compound NOT metabolized; Bacterial Biotransformation [25]: Compound metabolized; Bacterial Biotransformation [26]: Compound metabolized; Bacterial Biotransformation [27]: Compound NOT metabolized; Bacterial Biotransformation [28]: Compound NOT metabolized; Bacterial Biotransformation [29]: Compound NOT metabolized |
